Assay results reported in a melting point compilation (Tetko et al.; mined from patent text by program, amines drawn as free bases though some values may be those of a salt).
Residues, ends and D or L forms follow the SMILES beside them. *: point of attachment. Boc = CC(C)(C)OC(=O)*; Bn = c1ccc(C*)cc1

SMILES | melting point [°C]
COC(=O)C(Cc1ccc(OCc2ccccc2)cc1)NC(=O)C(COCc1ccccc1)NC(=O)C(Cc1c[nH]c2ccccc12)NC(=O)OC(C)(C)C (stereo not drawn) (Boc-Trp-Ser(Bn)-Tyr(Bn)-OMe; configuration not given here) | 130 to 131
CCCCCCCCC#CCC#CCC#CCCCC(=O)Nc1ccc(O)cc1 | 121
COc1cccc(-c2nn(Cc3ccccc3)c(N)c2C#N)c1 | 147 to 149
CCOC(=O)C1CN(C(C)=O)CCN1CC=CC(=O)Nc1cc2c(Nc3ccc(F)c(Cl)c3)ncnc2cc1OCC1CC1 (centres undefined) | 152 to 156
COC(=O)Nc1ccc(CN2CCC(C(O)(c3ccc(OC(F)(F)F)cc3)c3ccc(OC(F)(F)F)cc3)CC2)cc1 | 178 to 182
CNc1nc(SC)ncc1C#N | 189 to 190
CCOC(=O)Nc1cc2c3ccccc3n(Cc3ccccc3)c2cn1 | 217 to 218
COc1cccc(CC(=S)N2CCCCC2)c1 | 55 to 56
Nc1ccc(Cl)c(S(=O)c2ccccc2)c1 (centres undefined) | 152 to 155
C=C(C)OC(=O)N1c2ccncc2NC(=O)C1C (racemic) | 170 to 171
CC1CC2=C(OC(NC=N)C2)c2ccc(=O)[nH]c21 (centres undefined) | > 250
Cc1noc(NS(=O)(=O)c2ccccc2-c2ccc(-n3cccn3)cc2)c1C | 88 to 98
CN(C)Cc1cccc(CSCCNC2=NS(=O)N=C2N)c1 (centres undefined) | 122 to 125
CC(=O)Nc1ccc2[nH]c(=O)c(=O)n(CC(C)(C)C)c2c1 | 294 to 295
COC(=O)CCCc1cc2nc(Cl)ccc2n1S(=O)(=O)c1ccccc1F | 83
COc1ccc2c(c1OCc1ccc(C(=O)O)cc1)CC(C(=O)O)N(C(=O)C(c1ccccc1)c1ccccc1)C2 (racemic) | 190 to 192
Cc1nc(C#Cc2ccccc2)n(C)c1-c1nc(C2CC2)no1 | 88
COC(=O)c1cc2cc([N+](=O)[O-])cc(O)c2o1 | 252 to 253
OC1(C#Cc2ccc(-c3ccccn3)cc2)CN2CCC1CC2 (centres undefined) | 205 to 206
CCOC(=O)c1nc(C)n(Cc2ccc([N+](=O)[O-])cc2)c1C(=O)OCC | 109
COc1nc(Cl)c(-c2c(F)cc(F)cc2F)c(N[C@@H](C)C(F)(F)F)n1 | 121 to 129
COc1ncc(C=C2SC(=S)N(CC(=O)O)C2=O)cc1-c1cc2c(cc1C)C(C)(C)CCC2(C)C | 253 to 255
NC(=O)C1N=COC1CCl (centres undefined) | 110 to 112

SMILES | melting point [°C]
COC(=O)CCc1cc(C(C)(C)C)c(O)c(C(C)(C)C)c1 | 63 to 64.5
CC1(C)Cc2cccc(O)c2S1 | 87 to 92
CNC(=O)On1c(C(F)(F)F)nc2nc(Br)c(Cl)c(Br)c21 | 216
O=[N+]([O-])c1cc(Cl)c(OCc2ccccc2-c2ccccc2)c(Cl)c1 | 83 to 84.5
CCOc1cc(Cc2cnc(N)nc2N)cc2c1OC(C)(C)C=C2C(C)(C)O | 209 to 210
COC(=O)c1cccc(CN2CCN(c3nc(C)c(C(C)=O)s3)C2=O)c1 | 122 to 124
CC(C)N1CCC(n2nc(-c3c(-c4ccccc4)nn4ccccc34)ccc2=O)CC1 | 158
COc1ccc2c(c1)COc1c-2ccc2c(OC)cccc12 | 166 to 167
COc1ccc(C(F)(F)C(F)(F)F)cc1C(C)=O | 47
O=C1NC(=O)C(Nc2cccc(-c3ccc(OCc4ccc5ccccc5n4)cc3)c2)S1 (centres undefined) | 132 to 133
O=[N+]([O-])c1cc2nc(O)c(O)nc2c2nsnc12 | > 300
COc1cc(C(N)C(N)=O)c(F)cc1Cl (centres undefined) | 162
O=c1c(-c2ccccc2)c(-c2ccccc2)sn1-c1ccccc1 | 175 to 176
CCc1ccc(CCOc2cccc(NC3SC(=O)NC3=O)c2)nc1 (centres undefined) | 140 to 142
CC(C)(C)OC(=O)N1CC(c2ccc(N)nc2)C1 | 103 to 104
C/C(=C\CC1OC(=O)NC1=O)c1cccc(OCc2nc(-c3ccc(OC(F)(F)F)cc3)oc2C)c1 (centres undefined) | 105 to 106
NC(=O)CCCCCCCCCCn1nnnc1S | 112 to 114
COCC=C(NC(C)=O)C(=O)OC | 61 to 63
ON=C(Cn1ccnc1)c1ccc(Cl)cc1 | 185 to 186
CN1CCN(S(=O)(=O)c2ccc([C@@H](CC3CCCC3)C(=O)O)cc2)CC1 | 202 to 203
COC(=O)COc1c(C)cc(SCc2ccc(-c3ccc(C(F)(F)F)cn3)cc2)c2c1CCO2 | 94 to 95
COC1=CCC2=C(CC[C@H]3[C@@H]4CCC(=O)[C@@]4(C)CC[C@]23C)C1 | 155 to 158
COc1ccc(S(=O)(=O)NC(=O)c2ccc(C(=O)NCCO)nc2)cc1 | 221 to 223

SMILES | melting point [°C]
CCS(=O)(=O)C(=CNc1ccc(NC=C(S(=O)(=O)CC)S(=O)(=O)CC)cc1)S(=O)(=O)CC | 265 to 268
COc1cc(OC)c2c(=O)cc(-c3ccc(C)cc3)oc2c1C1=CCN(C)CC1 | 113 to 114
COc1c(F)cc(Cn2cnnc2S)cc1F | 124 to 126
CC(C)(C)CC(C)(C)c1cc(-n2nc3ccc([N+](=O)[O-])cc3n2)c(O)c(C(C)(C)c2ccccc2)c1 | 153 to 156
C=CCN1CCCN(c2c(C)cccc2Cl)C1=S | 82 to 84
COc1ccc2c(c1)C1=C(SCC3(CCN(CC(O)COc4ccc(Cl)cc4)CC3)O1)C(=O)C2=O (centres undefined) | 109 to 110
CN(C)c1ncnc2c(-c3ccncc3)cnn12 | 184 to 185
CCOc1ccc([N+](=O)[O-])c(NC23CC4CC(CC(C4)C2)C3)c1 | 147
CC(C)OC(=O)Cn1c(=O)n(C)c(=O)n(-c2cc(N=c3oc(=O)n4n3CCCC4)c(F)cc2Cl)c1=O | 115 to 120
COCOCc1nc(-c2ccccc2)oc1CO | 70 to 71
CCOC(=O)c1cn(-c2c(F)cc(F)c([N+](=O)[O-])c2F)c2c(Cl)c(F)c(F)cc2c1=O | 167 to 169
COc1ccc(C(=O)O)cc1OC(C)(C)C | 177 to 178
O=C(CN1CCN(c2ccccc2)CC1)Nc1ccc2c(c1NC(=O)c1ccccc1)C(=O)c1ccccc1C2=O | 225 to 226
O=C(CCC(C(=O)O)N1C(=O)c2cccc(NCc3ccco3)c2C1=O)Nc1ccccc1 (centres undefined) | 146 to 148
CNC(=N[N+](=O)[O-])NCCSCc1[nH]cnc1C | 112 to 114
Cc1c(-c2ccccc2)n(-c2c(F)cccc2F)c(-c2ccccc2)cc1=O | 219 to 221
Nc1nccc(Oc2ccc3c(C(=O)Nc4ccc(F)c(C(F)(F)F)c4)nsc3c2)n1 | 237 to 239
O=C(O)[C@H]1CC[C@H](Nc2ncc3ncnc(Nc4ccc(F)c(Cl)c4)c3n2)CC1 | > 290
COc1cccc(C(O)C2CCN(CCc3ccc(F)cc3)CC2)c1OC (centres undefined) | 114 to 116
CCCCNc1ccc(OC)c(Cl)c1Cl | 47 to 49
CC(=O)n1ncc2c(OCc3ccccc3)cc(C)cc21 | 91 to 93
O=C(O)C=CC(=O)NNC(=O)N1Cc2ccccc2Oc2ccc(Cl)cc21 | 171 to 172
O=C1CC(c2ccccc2)C(c2ccccc2)=NN1C(=O)Nc1ccc(C(F)(F)F)cc1 (centres undefined) | 164 to 166
